Reference: US9464060B2, “Compounds” (TAKEDA PHARMACEUTICAL COMPANY LIMITED, priority 2013, dated 2016)
Counter-ions that a name gives are not always drawn.

Tests used:
[1] = target: T1, LPA5 receptor (Homo sapiens (Human), UniProt Q9H1C0); details: reported, cited from earlier work
[2] = In vivo bleomycin induced scleroderma model; parameters: species or system C57BL/6 mice; details: mice, bleomycin i.d.
Description: In Vivo Bleomycin Induced Scleroderma Model Experimental Outline
Adult male C57BL/6 mice, aged 8-10 weeks, were assigned to groups and allowed to acclimatise for a week. On Day −1, the back skin of the animals was shaved. From Day 0, animals were administered with 100 μl of a 1 mg/ml solution of bleomycin sulphate in phosphate buffered saline (PBS) by intradermal injection in the shaved skin. Injections were repeated in a one square centimeter area every other day for four weeks. A group of ten animals (Control group) was injected with an identical volume of PBS. Animals were weighed at the beginning of the experiment on Day 0 and then twice weekly throughout the study. At the end of the experiment, on Day 28, animals were culled and samples of back skin were taken for further analysis. All groups were n=10; the vehicle was distilled water and the administration volume was 10 ml/kg for oral gavage (p.o.); administration volume was 25 μl for topical application.
Bodyweights were graphed along with the standard error of the mean (SEM); Skin samples (two punch biopsies per animal, 4 mm in diameter each) samples were hydrolyzed and hydroxyproline content of the samples was determined from analysis in a semi-automated process using a continuous flow analyzer. Autoanalyser readings were calibrated against hydroxyproline standards and collagen content calculated. […] Bleomycin administration induced a highly significant increase in skin collagen content when compared to the control, saline-injected, group (p<0.01).

[3] = test system: LPA5 receptor; assay: In vivo farnesyl pyrophosphate-induced hyperalgesia model (Randall-Selitto); details: rat, FPP-induced hyperalgesia
Description: In Vivo Farnesyl Pyrophosphate-Induced Inflammatory Model
The FPP-induced hyperalgesia model is a pharmacodynamic rat model which involves inducing pain by injecting FPP, an agonist of LPA5 receptor, into the plantar surface of the hindpaw.
Withdrawal responses were reassessed at 30 and 90 minutes after injection of FPP in the ipsilateral paw.

[4] = target: T1, LPA5 receptor; assay: In vitro LPA5 receptor assay (LPA-driven intracellular calcium release, FLIPR); assay type: cell-based; details: RH7777 cells expressing human LPA5 receptors; LPA at EC90
Description: In Vitro LPA5 Receptor Assay
(§1) Engagement of the LPA5 receptor by its ligand, oleoyl-L-α-lysophosphatidic acid (LPA), leads to the release of intracellular stores of calcium into the cytoplasm mediated through a Gq-driven increase in inositol triphosphate (IP3) levels. Gq is a heterotrimeric G protein subunit that activates phospholipase C.
The ability of test compounds to prevent LPA-driven intracellular release of stored calcium from RH7777 cells expressing human LPA5 receptors was assayed by stimulating the cells with LPA in the presence of various test compounds to measure the test compounds'antagonism, i.e. activity in vitro.
(§2) Approximately 10,000 cells in normal culture medium (Minimal Essential Media, 10% Foetal Calf Serum) were dispensed per assay well in a black clear bottom poly-D-lysine coated 384 well plate (Corning). Cells were allowed to settle for thirty minutes at room temperature before being incubated overnight at 37° C., 5% CO2. Sixteen to twenty hours after dispensing, the cells were loaded with a calcium-sensitive fluorescent dye by replacing the culture medium with assay buffer (1× Hanks buffered saline, 25 mM HEPES, 0.1% w/v fatty acid free BSA (bovine serum albumin), pH7.4) containing 1.25 mM probenecid and 1× Calcium 5 Reagent (Molecular Devices). Cells were incubated at 37° C. for one hour to allow for dye uptake.
(§3) To test for antagonist activity, test compounds at a final concentration range between 0.32 nM-10 μM (diluted in assay buffer) were added to the assay wells and allowed to incubate for fifteen minutes. […] Ligand-dependent changes in intracellular calcium levels were determined by measuring changes in fluorescence of the dye over […] following excitation over […].

[5] = target: human LPA1 receptors (Homo sapiens (Human), UniProt Q92633); assay: In vitro LPA1 receptor assay (LPA-driven intracellular calcium release, FLIPR); assay type: cell-based; details: RH7777 cells expressing human LPA1 receptors; LPA at EC80
human LPA1 receptors, sequence (Q92633 whole entry): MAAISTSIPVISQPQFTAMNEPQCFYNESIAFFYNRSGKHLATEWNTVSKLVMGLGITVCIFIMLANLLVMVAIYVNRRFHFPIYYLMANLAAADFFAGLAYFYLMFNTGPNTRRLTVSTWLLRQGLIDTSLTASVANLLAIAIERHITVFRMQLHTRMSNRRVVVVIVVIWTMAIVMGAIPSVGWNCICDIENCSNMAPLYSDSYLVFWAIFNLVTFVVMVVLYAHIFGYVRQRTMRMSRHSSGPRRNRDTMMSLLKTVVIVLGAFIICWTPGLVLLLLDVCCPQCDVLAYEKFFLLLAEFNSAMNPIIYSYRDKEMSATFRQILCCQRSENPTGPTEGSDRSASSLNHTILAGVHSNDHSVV
Description: In Vitro LPA1 Receptor Assay
as §1, with “LPA1” for “LPA5”
The ability of test compounds to prevent LPA-driven intracellular release of stored calcium from RH7777 cells expressing human LPA1 receptors was assayed by stimulating the cells with LPA in the presence of various test compounds to measure the test compounds' antagonism, i.e. activity in vitro.
as §2, with “(Dulbecco's Modified Eagle” for “(Minimal Essential”, “collagen” for “poly-D-lysine”, “(Beckton Dickinson).” for “(Corning).”
as §3, with “twenty five” for “fifteen”

T1 sequence (Q9H1C0 whole entry): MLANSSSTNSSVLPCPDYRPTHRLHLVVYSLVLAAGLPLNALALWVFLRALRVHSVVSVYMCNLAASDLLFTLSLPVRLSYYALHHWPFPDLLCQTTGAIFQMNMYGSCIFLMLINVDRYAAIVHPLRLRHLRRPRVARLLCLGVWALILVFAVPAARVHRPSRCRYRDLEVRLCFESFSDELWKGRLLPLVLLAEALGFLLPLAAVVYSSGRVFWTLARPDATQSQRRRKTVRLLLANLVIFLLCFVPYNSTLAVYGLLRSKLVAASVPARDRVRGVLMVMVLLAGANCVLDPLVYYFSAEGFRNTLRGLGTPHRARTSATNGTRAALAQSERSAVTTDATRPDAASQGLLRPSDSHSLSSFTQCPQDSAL

| IC50 [4] [nM] | IC50 [5] [nM] | SMILES | also measured |
| --- | --- | --- | --- |
| 99 | 75 | Cc1cccc(C)c1Oc1ccc(C(=O)N(CCC(C)C)Cc2ccc(C(=O)O)cc2)cc1 [Example 45, 4-((4-(2,6-Dimethylphenoxy)-N-isopentylbenzamido)methyl)benzoic acid] | – |
| 0.4 | 2 | COc1ccccc1Oc1ccc(C(=O)N(CCCc2ccccc2)Cc2ccc(C(=O)O)cc2)cc1 [Example 32, 4-((4-(2-Methoxyphenoxy)-N-(3-phenylpropyl)benzamido)-methyl)benzoic acid] | – |
| 31 | 160 | Cc1cccc(F)c1Oc1ccc(C(=O)N(Cc2ccc(C(=O)O)cc2)CC2CC2)cc1 [Example 40, 4-((N-(Cyclopropylmethyl)-4-(2-fluoro-6-methylphenoxy)-benzamido)methyl)benzoic acid] | In vivo efficacy (minimum effective dose (MED) ([3]; route po): 60 mg/kg |
| 17 | 19 | Cc1cccc(C)c1Oc1ccc(C(=O)N(Cc2ccccc2)Cc2ccc(C(=O)O)cc2)cc1 [Example 46, 4-((N-Benzyl-4-(2,6-dimethylphenoxy)benzamido)methyl)benzoic acid] | – |
| 140 | 47 | Cc1ccccc1Oc1ccc(C(=O)N(Cc2ccc(C(=O)O)cc2)CC(F)(F)F)cc1 [Example 70, 4-((4-(o-Tolyloxy)-N-(2,2,2-trifluoroethyl)benzamido)methyl)benzoic acid] | – |
| 170 | 390 | O=C(O)c1ccc(CN(CC(F)F)C(=O)c2ccc(Oc3ccccc3Cl)cc2)cc1 [Example 78, 4-((4-(2-Chlorophenoxy)-N-(2,2-difluoroethyl)benzamido)methyl)benzoic acid] | – |
| 0.4 | 0.3 | COc1ccccc1Oc1ccc(C(=O)N(CCCc2cccc(F)c2)Cc2ccc(C(=O)O)cc2)cc1 [Example 33, 4-((N-(3-(3-Fluorophenyl)propyl)-4-(2-methoxyphenoxy)-benzamido)methyl)benzoic acid] | – |
| 5 | 4 | COc1ccccc1Oc1ccc(C(=O)N(Cc2ccc(C(=O)O)cc2)CC2CC2)cc1 [Example 31, 4-((N-(Cyclopropylmethyl)-4-(2-methoxyphenoxy)benzamido)-methyl)benzoic acid] | – |
| 8 | 4 | COc1ccccc1Oc1ccc(C(=O)N(Cc2ccc(C(=O)O)cc2)CC(F)(F)F)cc1 [Example 61, 4-((4-(2-Methoxyphenoxy)-N-(2,2,2-trifluoroethyl)benzamido)methyl)benzoic acid] | – |
| 43 | 34 | COc1ccccc1Oc1ccc(C(=O)N(Cc2ccc(C(=O)O)cc2)CC(F)F)cc1 [Example 29, 4-((N-(2,2-Difluoroethyl)-4-(2-methoxyphenoxy)benzamido)-methyl)benzoic acid] | – |
| 98 | 40 | CC(F)(F)CN(Cc1ccc(C(=O)O)cc1)C(=O)c1ccc(Oc2ccccc2F)cc1 [Example 74, 4-((N-(2,2-Difluoropropyl)-4-(2-fluorophenoxy)benzamido)methyl)benzoic acid] | – |
| 120 | 180 | CCCN(Cc1ccc(C(=O)O)cc1)C(=O)c1ncc(Oc2ccccc2OC)cn1 [Example 85, 4-((5-(2-Methoxyphenoxy)-N-propylpyrimidine-2-carboxamido)methyl)benzoic acid] | – |
| 5 | 7 | COc1cccc(F)c1Oc1ccc(C(=O)N(Cc2ccc(C(=O)O)cc2)CC2CC2)cc1 [Example 67, 4-((N-(Cyclopropylmethyl)-4-(2-fluoro-6-methoxyphenoxy)benzamido)methyl)benzoic acid] | – |

Continued, compound first:

| SMILES | IC50 [4] [nM] | IC50 [5] [nM] | also measured |
| --- | --- | --- | --- |
| CC(C)=CCC/C(C)=C/CC/C(C)=C/COP(=O)(O)OP(=O)(O)O [Farnesyl pyrophosphate] | – | – | EC50 ([1]; LPA5 receptor, read-out: in-vitro EC50): 49 nM; selectivity over other LPA receptors [1]: 3 fold |
| C[C@H]1C[C@H]2[C@@H]3CCC4=CC(=O)C=C[C@]4(C)[C@@]3(F)[C@@H](O)C[C@]2(C)[C@@]1(O)C(=O)CO [Betamethasone, reference compound] | – | – | skin collagen content compared to the vehicle-treated group ([2]; treatment from Day 0 to Day 28): non-significant reduction |
| O=C(O)c1ccc(CN(Cc2ccccc2)C(=O)c2ccc(Oc3ccccc3F)cc2)cc1 [Example 11, 4-((N-Benzyl-4-(2-fluorophenoxy)benzamido)methyl)benzoic acid] | 6 | 6 | In vivo efficacy (minimum effective dose (MED) mg/kg) ([3]; route po): ≦10 mg/kg |
| Cc1ccc(NC(=O)c2ccc(CN3CCN(C)CC3)cc2)cc1Nc1nccc(-c2cccnc2)n1 [Imatinib, Imatinib mesylate, reference compound] | – | – | skin collagen content compared to the vehicle-treated group ([2]; treatment from Day 0 to Day 28): non-significant reduction |
| Cc1ccccc1Oc1ccc(C(=O)N(Cc2ccccc2)Cc2ccc(C(=O)O)cc2)cc1 [Example 24, 4-((N-Benzyl-4-(o-tolyloxy)benzamido)methyl)benzoic acid] | 7 | 11 | In vivo efficacy (minimum effective dose (MED) ([3]; route po): 30 mg/kg |
| O=C(O)c1ccc(CN(C[C@H](O)Cc2ccccc2)C(=O)c2ccc(Oc3ccccc3F)cc2)cc1 [Example 20, (R)-4-((4-(2-Fluorophenoxy)-N-(2-hydroxy-3-phenylpropyl)-benzamido)methyl)benzoic acid] | 40 | 12 | – |
| CC(C)CN(Cc1ccc(C(=O)O)cc1)C(=O)c1ccc(Oc2ccccc2F)cc1 [Example 4, 4-((4-(2-Fluorophenoxy)-N-isobutylbenzamido)methyl)benzoic acid] | 63 | 49 | In vivo efficacy (minimum effective dose (MED) ([3]; route ip): 1 mg/kg; In vivo efficacy (minimum effective dose (MED) mg/kg) ([3]; route po): ≦10 mg/kg |
| O=C(O)c1ccc(CN(CC2CC2)C(=O)c2ccc(Oc3ccccc3F)cc2)cc1 [Example 5, 4-((N-(Cyclopropylmethyl)-4-(2-fluorophenoxy)benzamido)-methyl)benzoic acid] | 16 | 46 | bodyweight loss compared to the vehicle-treated group ([2]; 30 mg/kg p.o. BID): did not differ; skin collagen content compared to the vehicle-treated group ([2]; treatment from Day 0 to Day 28): significant reduction; skin collagen content compared to the vehicle-treated group ([2]; treatment from Day 14 to Day 28, 30 mg/kg p.o. BID): significant reduction |
| COc1cccc(CN(Cc2ccc(C(=O)O)cc2)C(=O)c2ccc(Oc3ccccc3F)cc2)c1 [Example 13, 4-((4-(2-Fluorophenoxy)-N-(3-methoxybenzyl)benzamido)-methyl)benzoic acid] | 3 | 4 | – |
| CC(C)CCN(Cc1ccc(C(=O)O)cc1)C(=O)c1ccc(Oc2ccccc2F)cc1 [Example 8, 4-((4-(2-Fluorophenoxy)-N-isopentylbenzamido)methyl)benzoic acid] | 32 | 46 | In vivo efficacy (minimum effective dose (MED) ([3]; route po): 100 mg/kg |
